Assay results as given in patent US9999625B2, “Pyrrolobenzodiazepine compounds” (FEMTOGENIX LIMITED, priority 2014, dated 2018).
“Also recorded” adds a separate entry of the source.

Experiments:
[1] = system: STAT3 consensus sequence (5′-GACATTGC-3′); experiment: HPLC assay of DNA adduct formation; assay type: binding; details: 4:1 ligand:oligonucleotide, room temperature, UV 254 nm
From the text: (§1) The interactions of C1-linked PBD core compound (42), […] C1-linked PBD dimer compound (51) were studied with duplex transcription factor consensus sequences. For the C1-linked PBD core compound (42) and C1-linked PBD dimer compound (51) the study used a STAT3 consensus sequence (5′-GACATTGC-3′). Whereas for the C1-linked PBD monomer compound (49), an NF-KB consensus sequence (5′-GGGACAGCCC-3′) was used in the study. The interactions of each of the three compounds were studied with an HPLC assay utilizing a X-bridge MS […] Oligonucleotide Separation Technology (OST) column (2.3×50 mm) and a gradient of 40% acetonitrile/water and 100 mM TEAB ([…])/water as mobile phase with a flow rate of 0.5 mL/min and UV detection at 254 nm. A 4:1 molar ratio of ligand:oligonucleotide was used, with each single-stranded oligonucleotide dissolved in 1M ammonium acetate to form stock solutions of 1 mM. The oligonucleotides were initially annealed by heating their 1 mM solutions to 70° C. for 10 mins followed by gradual cooling over 8 hours and storage overnight at −20° C. Working solutions of oligonucleotides of 25 μM were then prepared by diluting the annealed stock solutions with 100 mM ammonium acetate. The ligands were dissolved in DMSO to form a stock solution of 10 mM which was stored at −20° C. for no longer than four months. Working solutions of the drug of 100 μM were prepared by diluting the stock solution with 100 mM ammonium acetate. The working solutions of the ligands were added to the working solution the oligonucleotides at RT, and the mixture incubated for different time intervals at room temperature. […] The chromatograms for HPLC assays using C1-linked PBD core (42), monomer (49) and dimer (51) compounds are shown in FIGS. 7, 8 and 9 respectively.

[2] = system: MDA MB231 (triple negative human breast cancer); experiment: Cytotoxicity by MTT assay; assay type: cell-based; details: 72 hours exposure, MDA MB 231
Method: MDA MB231 (triple negative human breast cancer) was obtained from the American Type Culture Collection. The cell-line was maintained in monolayer culture in 75 cm^2 flasks (TPP, Switzerland) under a humidified 5% CO2 atmosphere at 37° C. The MDA MB231 cell line was maintained in high glucose (Dulbecco's Modified Eagle Medium) DMEM (4.5 g\l; Invitrogen), foetal bovine serum (10%, Biosera UK), non-essential amino acids (ix; Invitrogen), L-glutamine (2 mM; Invitrogen) and Penicillin-Streptomycin (1% v/v, Invitrogen). For passaging, cells were washed with PBS [Phosphate-Buffered Saline] […] For seeding, cells were counted using a Neubauer haemocytometer (Assistant, Germany) by microscopy (Nikon, USA) on a non-adherent suspension of cells that were washed in PBS, trypsinised, centrifuged at 8° C. at 8000 rpm for 5 min and re-suspended in fresh medium.
The cells were grown in normal cell culture conditions at 37° C. under a 5% CO2 humidified atmosphere using appropriate medium. […] After 72 h of continuous exposure to each compound, the cytotoxicity was determined using the 3-(4,5-Dimethylthiazol-2-yl)-2,5-diphenyltetrazolium bromide (MTT) (Lancaster Synthesis Ltd, UK) colorimetric assay. Absorbance was quantified by spectrophotometry at λ=570 nm (Envision Plate Reader, PerkinElmer, USA). IC50 values were calculated by a dose-response analysis using the Prism GraphPad Prism® software. […]

cancer cell lines = details: cited from earlier work
[3] = system: NF-KB consensus sequence (5′-GGGACAGCCC-3′); experiment: HPLC assay of DNA adduct formation; assay type: binding; details: 4:1 ligand:oligonucleotide, room temperature, UV 254 nm
From the text: as §1

Structure (SMILES)	DNA adduct formation (HPLC chromatogram) [1]	IC50 [2] [µM]	activity against some cancer cell lines (cancer cell lines)	DNA adduct formation (HPLC chromatogram) [3]
COc1cc2c(cc1OC)C(=O)N1CC[C@H](OCCCO[C@H]3CCN4C(=O)c5cc(OC)c(OC)cc5N=C[C@H]34)[C@H]1C=N2 [Compound 51, (1S,1′S)-1,1′-(Propane-1,3-diylbis(oxy))bis(7,8-dimethoxy-1,2,3,11a-tetrahydro-5H-benzo[e]pyrrolo [1,2-a][1,4]diazepin-5-one)]	evidence of DNA adduct formation; also recorded: interacted with the DNA consensus sequence to form adducts	0.236 ± 0.027	–	–
COC(=O)c1cc(-c2ccc(NC(=O)c3nc(NC(=O)CCCOc4cc5c(cc4OC)C(=O)N4CCC[C@H]4C=N5)cn3C)cc2)cn1C [KMR-28-39]	–	–	femtomolar activity	–
COc1cc2c(cc1OC)C(=O)N1CC[C@H](O)[C@H]1C=N2 [Compound 42, (1S,11aR)-1-Hydroxy-7,8-dimethoxy-1,2,3,11a-tetrahydro-5H-benzo[e]pyrrolo[1,2-a][1,4]diazepin-5-one]	evidence of DNA adduct formation; also recorded: interacted with the DNA consensus sequence to form adducts	–	–	–
COC(=O)c1cc(-c2ccc(NC(=O)c3nc(NC(=O)CO[C@H]4CCN5C(=O)c6cc(OC)c(OC)cc6N=C[C@H]45)cn3C)cc2)cn1C [Compound 49, Methyl 4-(4-(4-(2-(((1S,11aR)-7,8-dimethoxy-5-oxo-2,3,5,11a-tetrahydro-1H-benzo[e]pyrrolo[1,2-a][1,4]diazepin-1-yl)oxy)acetamido)-1-methyl-1H-imidazole-2-carboxamido)phenyl)-1-methyl-1H-pyrrole-2-carboxylate]	–	0.036 ± 0.0023	–	evidence of DNA adduct formation; also recorded: interacted with the DNA consensus sequence to form adducts
